Source: patent publication US20210346331A1, “TRPV4 ACTIVITY INHIBITOR” (KAO CORPORATION, priority 2018, published 2021)

Target: T1, human TRPV4 (Homo sapiens, UniProt Q9HBA0)
T1 construct: expressed in transfected cells; host or cells: HeLa cells, transient transfection with pcDNA3.1 Directional TOPO vector
Experiment: Measurement of intracellular calcium ion influx activity in human TRPV4 expressing cells (HeLa, Fluo4) stimulated with TRPV4 agonist GSK1016790a
Assay type: cell-based
Details: for Intracellular Ca^2+ influx rate (%): GSK + solvent = 100%, human TRPV4 expressing HeLa cells, n = 3, Mean ± S.E.; for calcium ion influx caused by the TRPV4 agonist (result in words): summary of Table 1, Dunnett's test vs GSK1016790a + solvent
Experimental: Polymerase chain reaction (PCR) was performed under the following conditions using a primer set comprising the oligonucleotides represented by the following base sequences which were synthesized with reference to published human TRPV4 gene sequences using a cDNA obtained by reverse-transcribing a totalRNA extracted from the Hutu-80 cell, as a template.
The obtained PCR product was purified using the High Pure PCR Product Purification Kit. The human TRPV4 gene expression vector was produced using the purified PCR product and the pcDNA3.1 Directional TOPO Expression Kit.
The HeLa cell was cultured using the DMEM/F12 medium containing 10% of fetal bovine serum. The HeLa cell was seeded in a T-75 cell culture flask at 5×10^5 cells/Flask. After three days of culture, the human TRPV4 gene expression vector (8 μg) produced in the above (2) was transfected into the cell using the TransIT-HeLaMONSTER Transfection Kit and cultured for 1 day.
The cell was detached using the Detachin and seeded at a density of 1.5×10^4 cells/90 μL/well in the DMEM/F12 medium containing 10% of fetal bovine serum on the 96 well Optical bottom plate and cultured for further 1 day.
Measurement of the intracellular calcium ion influx activity was performed using the Calcium Kit II—fluo 4. After the Loading buffer containing the Fluo4-AM and the Hanks' balanced salt solution were mixed at a ratio of 1:1, 180 μL/well of the mixture was added to the human TRPV4 expressing cell produced in the above (3) and incubated at 37° C. for 1 hour. Thereafter, fluorescence intensity (excitation wavelength: 488 nm, fluorescence wavelength: 524 nm) was measured using a fluorescent plate reader FDSS3000 (Hamamatsu Photonics K.K.) at 37° C. every 2 seconds. The GSK1016790a which is the TRPV4 agonist and each of the 4,3′-di-O-methyl-rosmarinic acid, 3′,4′-di-O-methyl-rosmarinic acid, 4,4′-di-O-methyl-rosmarinic acid, and 3,4-di-O-methyl-rosmarinic acid solution prepared in Production Examples as samples were diluted with the Hanks' balanced salt solution, 20 μL/well of the mixed solution thereof (they were mixed just before the addition) was added to the cell after 30 seconds after the start of the measurement, and the change of the fluorescence intensity was measured every 2 seconds until 300 seconds. The GSK1016790a was added so as to have a final concentration of 3 nM.
As a positive control of the TRPV4 activity inhibition, HC067047, which is the TRPV4 antagonist, was added to the cell in a final concentration of 10 μM.
The TRPV4 activity of the samples was calculated by the following equation, assuming that the influx rate of calcium ions by the treatment of the GSK1016790a, which is the TRPV4 agonist, is 100%.
Influx rate of calcium ions (%)=[(Fmax/F0)−(FmaxC2/F0C2)]/[(FmaxC1/FOC1)−(FmaxC2/F0C2)]×100 (Expression 1)
Fmax: The maximum fluorescence intensity of the well to which the GSK1016790a and a sample were added, at from 0 to 300 seconds after the start of the measurement
FmaxC1: The maximum fluorescence intensity of the well to which the GSK1016790a and a solvent were added, at from 0 to 300 seconds after the start of the measurement
FmaxC2: The maximum fluorescence intensity of the well to which only a solvent was added, at from 0 to 300 seconds after the start of the measurement
F0: The fluorescence intensity of the same well as Fmax, immediately after the start of the measurement
F0C1: The fluorescence intensity of the same well as FmaxC1, immediately after the start of the measurement
F0C2: The fluorescence intensity of the well to which only a solvent was added, immediately after the start of the measurement
The influx rates of calcium ions (n=3 for each group) in the case of adding samples were tested using the Dunnett's test by comparing with the case of adding the GSK1016790a+a solvent. […] The results were presented as the average value (Mean)±standard error (S.E.).

[1] = sample 30 μM + GSK1016790a 3 nM
[2] = sample 100 μM + GSK1016790a 3 nM

T1 sequence (Q9HBA0 whole entry): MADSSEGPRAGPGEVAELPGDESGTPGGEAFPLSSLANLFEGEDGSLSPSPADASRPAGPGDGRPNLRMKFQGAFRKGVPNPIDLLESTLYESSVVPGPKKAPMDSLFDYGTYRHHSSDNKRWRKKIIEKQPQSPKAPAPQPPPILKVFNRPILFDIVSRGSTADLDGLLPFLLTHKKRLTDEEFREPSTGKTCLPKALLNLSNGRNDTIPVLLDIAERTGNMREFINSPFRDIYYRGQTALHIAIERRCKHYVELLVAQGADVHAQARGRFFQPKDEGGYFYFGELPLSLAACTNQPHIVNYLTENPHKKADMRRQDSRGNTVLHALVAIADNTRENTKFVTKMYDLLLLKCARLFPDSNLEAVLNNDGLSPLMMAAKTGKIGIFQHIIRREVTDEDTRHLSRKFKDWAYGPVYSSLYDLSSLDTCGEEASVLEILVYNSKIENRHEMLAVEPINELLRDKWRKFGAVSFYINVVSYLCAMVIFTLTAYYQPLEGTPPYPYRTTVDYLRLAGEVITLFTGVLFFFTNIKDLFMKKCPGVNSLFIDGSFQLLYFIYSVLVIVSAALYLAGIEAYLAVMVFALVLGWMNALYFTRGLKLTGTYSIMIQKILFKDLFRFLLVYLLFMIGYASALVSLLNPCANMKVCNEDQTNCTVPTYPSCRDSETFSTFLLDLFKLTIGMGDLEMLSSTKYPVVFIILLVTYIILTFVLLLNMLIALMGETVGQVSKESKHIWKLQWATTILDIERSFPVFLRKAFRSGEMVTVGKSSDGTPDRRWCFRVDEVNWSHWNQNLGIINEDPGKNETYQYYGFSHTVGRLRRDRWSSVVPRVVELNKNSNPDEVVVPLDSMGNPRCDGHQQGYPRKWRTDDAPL

In the case of COc1ccc(/C=C/C(=O)OC(Cc2ccc(O)c(O)c2)C(=O)O)cc1OC (stereo not shown) [3′,4′-DiMe-RA, (E)-3-(3,4-dihydroxyphenyl)-2-{[3-(3,4-dimethoxyphenyl)acryloyl]oxy}propionic acid], the “Intracellular Ca^2+ influx rate (%)” value [1] is reported as 78.81 ± 3.67 (P < 0.01) %, the “Intracellular Ca^2+ influx rate (%)” value [2] is reported as 81.74 ± 1.18 (P < 0.01) % and the “calcium ion influx caused by the TRPV4 agonist (result in words)” value (“calcium ion influx caused” below) is reported as “significantly reduced the calcium ion influx”.
For COc1ccc(/C=C/C(=O)OC(Cc2ccc(OC)c(O)c2)C(=O)O)cc1O (stereo not shown) [4,4′-DiMe-RA, (E)-3-(3-hydroxy-4-methoxyphenyl)-2-{[3-(3-hydroxy-4-methoxyphenyl)acryloyl]oxy}propionic acid], the “Intracellular Ca^2+ influx rate (%)” value [1] was 83.19 ± 4.69 (P < 0.05) %, the “Intracellular Ca^2+ influx rate (%)” value [2] was 75.87 ± 3.39 (P < 0.001) % and the “calcium ion influx caused” value was “significantly reduced the calcium ion influx”.
With Cc1c(C(=O)Nc2cccc(C(F)(F)F)c2)cc(-c2ccccc2)n1CCCN1CCOCC1 [HC067047, reference compound] the “Intracellular Ca^2+ influx rate (%)” value (sample 10 μM + GSK1016790a 3 nM) was 0.63 ± 0.14 (P < 0.001) %.
With COc1ccc(CC(OC(=O)/C=C/c2ccc(O)c(O)c2)C(=O)O)cc1OC (stereo not shown) [3,4-DiMe-RA, (E)-3-(3,4-dimethoxyphenyl)-2-{[3-(3,4-dihydroxyphenyl)acryloyl]oxy}propionic acid] the “Intracellular Ca^2+ influx rate (%)” value [1] was 80.66 ± 1.58 (P < 0.01) %, the “Intracellular Ca^2+ influx rate (%)” value [2] was 78.99 ± 3.27 (P < 0.01) % and the “calcium ion influx caused” value was “significantly reduced the calcium ion influx”.
COc1ccc(CC(OC(=O)/C=C/c2ccc(O)c(OC)c2)C(=O)O)cc1O (stereo not shown) [4,3′-DiMe-RA, (E)-3-(3-hydroxy-4-methoxyphenyl)-2-{[3-(4-hydroxy-3-methoxyphenyl)acryloyl]oxy}propionic acid] was tested, and the “Intracellular Ca^2+ influx rate (%)” value [1] was 85.31 ± 8.14 (P < 0.05) %, the “Intracellular Ca^2+ influx rate (%)” value [2] was 81.02 ± 1.18 (P < 0.01) % and the “calcium ion influx caused” value was “significantly reduced the calcium ion influx”.
